For this assay, the system named is 556581-035-R-J1-PDC complex spheroid growth. Nature of the assay: Anticancer human tumor 556581-035-R-J1-PDC patient-derived ovarian carcinoma cell line growth inhibition [AhR]. Particulars: for viability, T/C: stronger effect = lower value. The text has this:
Multicellular complex tumor spheroid response to aryl hydrocarbon receptor antagonists in combination with a variety of drugs and investigational agents in selected tumor cell lines
The current study was undertaken to assess response to aryl hydrocarbon receptor antagonists in combination with standard-of-care drugs and investigational agents in solid tumor complex spheroid models. Complex spheroids include a stromal component modeled by human endothelial cells (HUVEC) and fibroblasts modeled by human mesenchymal stem cells (MSCs). The concentration ranges selected for each drug and investigational agent were based upon clinically achievable concentrations if the clinical Cmax of the agent was known.
Compounds. The drugs and investigational agents: BAY 2416964 (NSC825713), GNF351 (NSC835774), CH-223191 (NSC835775), CPI-455 (NSC825282), aza-TdCyd (NSC777586), decitabine (NSC127716), belinostat (NSC758774), entinostat (NSC756642), pevonedistat (NSC761192), tazemetostat (NSC777109), talazoparib (NSC765396), olaparib (NSC753686), selinexor (NSC780203), nedisertib (M3814, NSC802822), bortezomib (NSC756655), venetoclax (NSC766270), doxorubicin (NSC123127), elimusertib (BAY189344, NSC800525), ceralasertib (AZD6738, NSC777638), TAK-243 (NSC785004), alisertib (NSC759677), etoposide (NSC141540), topotecan (NSC609699), eribulin (NSC707389), gemcitabine (NSC613327), carboplatin (NSC241240), cisplatin (NSC119875), and SN-38 (NSC673596) were obtained from the National Cancer Institute (NCI) Developmental Therapeutics Program Chemical Repository (32). The FDA-approved anticancer drug set is available from the Developmental Therapeutics Program at https://dtp.cancer.gov/organization/dscb/obtaining/available plates.htm. […] The stock solutions were prepared in dimethyl sulfoxide (DMSO, Sigma-Aldrich, St. Louis, MO, cat. D2650), except for the platinum compounds which were prepared in saline (Quality Biological, Gaithersburg, MD, cat. 114-055-101), at 800-fold the tested concentration and stored at -70 degrees C prior to their use. All drugs and investigational agents were tested over a range starting from a high concentration at or near the clinical Cmax and decreasing in half-log increments. If the clinical Cmax for an agent had not been determined, the highest concentration tested was 10 microM (Table 1).
Cell Culture. All cells were maintained in an incubator at 37 degrees C and 5% CO2 with 95% humidity. The PDC lines were cultured according to standard operating procedures established by the NCI PDMR (https://pdmr.cancer.gov). Briefly, all PDCs were thawed and cultured in Matrigel-coated flasks prepared with a working solution of 1X Ham's F-12 nutrient mix, without supplementation (Invitrogen, Waltham, MA, cat. 11765054), 100 U/mL penicillin-streptomycin (Invitrogen, cat. 15140122), and 2.5% Matrigel (Corning Inc., Corning, NY, cat. 354248) for the first three passages. All PDCs were cultured in complete DMEM/F-12 media containing advanced DMEM/F-12 (Invitrogen, cat. 12634028), 4.9% defined fetal bovine serum, heat inactivated (HyClone Laboratories Inc., Logan, UT, cat. SH30070.03HI), 389 ng/mL hydrocortisone (Sigma-Aldrich, cat. H4001), 9.7 ng/mL human EGF recombinant protein (Invitrogen, cat. PHG0313), 23.4 microg/mL adenine (Sigma-Aldrich, cat. A2786), 97.3 U/mL penicillin-streptomycin (Invitrogen, cat. 15140122), 1.9 mM L-glutamine (Invitrogen, cat. 25030081), and 9.7 microM Y-27632 dihydrochloride (Tocris Bioscience, Bristol, United Kingdom, cat. 1254). The PDCs were cultured in complete DMEM/F12 media without 10 microM Y-27632 dihydrochloride for at least two passages prior to the screen. The established cell lines NCI-H1341 and […] were cultured in DMEM/F-12, HEPES (Invitrogen, cat. 11330032), 5% defined fetal bovine serum (HyClone Laboratories Inc., cat. SH30070.03), ITS premix universal culture supplement [insulin (5 microg/mL), transferrin (5 microg/mL), and selenious acid (5 ng/mL)] […]

Setting [1] is: curve of first compound, second compound 0.1 µM.
Where [2] appears, read: curve of first compound, second compound 0.316 µM.
[3] abbreviates: curve of first compound, second compound 1 µM.
Setting [4] is: curve of first compound, second compound 3.16 µM.
Where [5] appears, read: curve of first compound, second compound 10 µM.
[6] abbreviates: second compound 0.1 µM, first compound 0.0316 µM.
Setting [7] is: second compound 0.1 µM, first compound 0.1 µM.
Where [8] appears, read: second compound 0.1 µM, first compound 0.316 µM.
Setting [9] is: second compound 0.1 µM, first compound 1 µM.
[10] abbreviates: second compound 0.316 µM, first compound 0.0316 µM.
Setting [11] is: second compound 0.316 µM, first compound 0.1 µM.
Where [12] appears, read: second compound 0.316 µM, first compound 0.316 µM.
The mark [13] stands for this setting: second compound 0.316 µM, first compound 1 µM.
Setting [14] is: second compound 1 µM, first compound 0.0316 µM.
The mark [15] stands for this setting: second compound 1 µM, first compound 0.1 µM.
Setting [16] is: second compound 1 µM, first compound 0.316 µM.
Where [17] appears, read: second compound 1 µM, first compound 1 µM.
Setting [18] is: second compound 3.16 µM, first compound 0.0316 µM.
Where [19] appears, read: second compound 3.16 µM, first compound 0.1 µM.
The mark [20] stands for this setting: second compound 3.16 µM, first compound 0.316 µM.
Where [21] appears, read: second compound 3.16 µM, first compound 1 µM.
Setting [22] is: second compound 10 µM, first compound 0.0316 µM.
Where [23] appears, read: second compound 10 µM, first compound 0.1 µM.
Setting [24] is: second compound 10 µM, first compound 0.316 µM.
The mark [25] stands for this setting: second compound 10 µM, first compound 1 µM.

Several values for one entry are separate records, joined by “and”; a condition that tells them apart may be missing. Equal values may be shown once.
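Throughout, for viability, T/C: compound exposure lasted 7 days.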

With `CC(C)c1c(-c2ccccc2)nc2c(C#N)c[nH]n2c1=O`, the viability, T/C – broadly, the result in the treated group divided by that in the control group, in per cent – is 102% and 99.4% and 99.2% (compound 0.0316 µM); 105% and 102% and 98.3% (compound 0.1 µM); 92.7% and 106% and 104% (compound 0.316 µM); 101% and 106% and 99% (compound 1 µM); 95.7% and 110% and 93.8% (compound 3.16 µM); 86.8% and 94.4% and 83.1% (compound 10 µM). In addition, the half-maximal inhibitory concentration (IC50) (in general, the point on the concentration scale where inhibition reaches its midpoint) (curve of compound) is > 10000 nM.

`CC(CO)NC(=O)c1cc(-c2ccc(Cl)cc2)nn(-c2cnn(C)c2)c1=O` (stereo not drawn): the viability, T/C (compound 0.1 µM) is 98.9% [middle of 20 runs]. Also, the IC50 (compound alone, run of 05/31/2022) was > 10000 nM.

For `CC1COCCN1c1cc(C2(S(C)(=N)=O)CC2)nc(-c2ccnc3[nH]ccc23)n1` (stereo not drawn), the viability, T/C (compound 0.0316 µM) was 104% and 101% and 99.6%; the viability, T/C (compound 0.1 µM) is 103% and 105% and 107%; the viability, T/C (compound 0.316 µM) is 96.5% and 102% and 92.8%; the viability, T/C (compound 1 µM) was 86.3% and 92.2% and 88.4%; the viability, T/C (compound 3.16 µM) was 84.8% (2×) and 74.1%; the viability, T/C (compound 10 µM) is 59.5% and 60.3% and 57.7%. Besides, the 50% inhibitory concentration (IC50) (curve of compound) is > 10000 nM.

For the compound `COc1ccc([C@@H](O)c2cc(-c3ncnc4cc(N5CCOCC5)ccc34)c(F)cc2Cl)nn1`, the viability, T/C (compound 0.0316 µM) was 96.5% and 101% and 108%; the viability, T/C (compound 0.1 µM) was 106% and 98.1% and 104%; the viability, T/C (compound 0.316 µM) is 88.7% and 93.8% and 94.7%; the viability, T/C (compound 1 µM) was 76.4% and 70% and 71.3%; the viability, T/C (compound 3.16 µM) was 58.4% and 59.2% and 52.1%; the viability, T/C (compound 10 µM) is 45.5% and 37.5% and 38.9%. In addition, the half-maximal inhibitory concentration (IC50) (curve of compound) is 6680 nM and 4700 nM and 3460 nM.

Regarding `Cc1ccccc1N=Nc1ccc(NC(=O)c2ccnn2C)c(C)c1`, under “compound 1 µM”, the viability, T/C is 99.6% [middle of 20 runs]. Further, the IC50 (compound alone, run of 06/14/2022) was > 10000 nM.

As to `Cc1cncc(-c2nc(NCCc3c[nH]c4ccccc34)c3ncn(C(C)C)c3n2)c1`, the viability, T/C (compound 0.316 µM) was 103% [middle of 20 runs] and the viability, T/C (compound 10 µM) was 83.6% [middle of 20 runs]. The IC50 (compound alone, run of 06/06/2022) was > 10000 nM.

As to `COc1cccc2c1C(=O)c1c(O)c3c(c(O)c1C2=O)CC(O)(C(=O)CO)CC3OC1CC(N)C(O)C(C)O1` (stereo not drawn) + CC(CO)NC(=O)c1cc(-c2ccc(Cl)cc2)nn(-c2cnn(C)c2)c1=O, the half-inhibitory concentration (IC50) came to 393 nM under setting [1]; 396 nM under setting [2]; 445 nM under setting [3]; 375 nM under setting [4]; 361 nM under setting [5]. For the same compound, the viability, T/C is 89.7% under setting [6]; 80.7% under setting [7]; 58.7% under setting [8]; 16.1% under setting [9]; 3.94% (second compound 0.1 µM, first compound 3.16 µM); 3.84% (second compound 0.1 µM, first compound 10 µM). For the same compound, the viability, T/C is, setting by setting: under setting [10], 83.9%; under setting [11], 79.3%; under setting [12], 58.1%; under setting [13], 17.5%; (second compound 0.316 µM, first compound 3.16 µM) 4.59%; (second compound 0.316 µM, first compound 10 µM) 3.12%. Also, the viability, T/C reads like this: under setting [14], 85%; under setting [15], 87.3%; under setting [16], 64.8%; under setting [17], 14.5%; (second compound 1 µM, first compound 3.16 µM) 3.33%; (second compound 1 µM, first compound 10 µM) 3.66%. The viability, T/C is, setting by setting: under setting [18], 75.8%; under setting [19], 79.4%; under setting [20], 55.9%; under setting [21], 13.1%; (second compound 3.16 µM, first compound 3.16 µM) 4.03%; (second compound 3.16 µM, first compound 10 µM) 3.23%. Besides, the viability, T/C under setting [22] was 88.9%; the viability, T/C under setting [23] was 87%; the viability, T/C under setting [24] is 56%; the viability, T/C under setting [25] is 3.3%; the viability, T/C (second compound 10 µM, first compound 3.16 µM) was 1.46%; the viability, T/C (second compound 10 µM, first compound 10 µM) is 3.96%.

`Nc1ncn(C2CC(O)C(CO)O2)c(=O)n1` (stereo not drawn) + CC(CO)NC(=O)c1cc(-c2ccc(Cl)cc2)nn(-c2cnn(C)c2)c1=O: the 50% inhibitory concentration (IC50) is > 1000 nM under setting [1]; > 1000 nM under setting [2]; > 1000 nM under setting [3]; > 1000 nM under setting [4]; > 1000 nM under setting [5]. Further, the viability, T/C by setting is: (second compound 0.1 µM, first compound 0.00316 µM) 92.5%; (second compound 0.1 µM, first compound 0.01 µM) 89.9%; under setting [6], 84.9%; under setting [7], 77.1%; under setting [8], 78.7%; under setting [9], 70.4%. Besides, the viability, T/C (second compound 0.316 µM, first compound 0.00316 µM) is 88.4%; the viability, T/C (second compound 0.316 µM, first compound 0.01 µM) was 95%; the viability, T/C under setting [10] was 84.3%; the viability, T/C under setting [11] was 78.4%; the viability, T/C under setting [12] is 71.9%; the viability, T/C under setting [13] was 72.4%. Moreover, the viability, T/C (second compound 1 µM, first compound 0.00316 µM) is 85%; the viability, T/C (second compound 1 µM, first compound 0.01 µM) was 104%; the viability, T/C under setting [14] is 85.3%; the viability, T/C under setting [15] was 81.8%; the viability, T/C under setting [16] is 72.3%; the viability, T/C under setting [17] is 72.2%. Besides, the viability, T/C (second compound 3.16 µM, first compound 0.00316 µM) is 95.4%; the viability, T/C (second compound 3.16 µM, first compound 0.01 µM) was 90.7%; the viability, T/C under setting [18] is 87.3%; the viability, T/C under setting [19] is 75.2%; the viability, T/C under setting [20] is 70.1%; the viability, T/C under setting [21] was 68.9%. Also, the viability, T/C was 97.5% (second compound 10 µM, first compound 0.00316 µM); 99.6% (second compound 10 µM, first compound 0.01 µM); 92.3% under setting [22]; 81.8% under setting [23]; 80% under setting [24]; 77.1% under setting [25].

Values taken from PubChem BioAssay AID1918999 (Molecular Pharmacology Branch, DTP, NCI, 2023).
